From PubChem BioAssay (NCI)
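Step 1: Grow cells in 96-well plates. Step 2: Expose to compound for 48 hours at 5 concentrations. Step 3: Interpolate endpoints linearly; if unreached, use highest concentration. Definition used: TGI = concentration required for complete inhibition of growth.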

Columns and labels:
Assay in all cases: NCI tumour cell line growth inhibition, 48 h
OVCAR-8 ovarian = tested on: OVCAR-8 ovarian
IGROV1 ovarian = tested on: IGROV1 ovarian
SK-OV-3 ovarian = tested on: SK-OV-3 ovarian
KM12 colon = tested on: KM12 colon
SW-620 colon = tested on: SW-620 colon
EKVX NSCLC = tested on: EKVX NSCLC
COLO 205 colon = tested on: COLO 205 colon
HCC-2998 colon = tested on: HCC-2998 colon
SF-268 CNS = tested on: SF-268 CNS
OVCAR-5 ovarian = tested on: OVCAR-5 ovarian
NCI-H460 lung = tested on: NCI-H460 lung
M19-MEL melanoma = tested on: M19-MEL melanoma
MOLT-4 leukemia = tested on: MOLT-4 leukemia
SN12C renal = tested on: SN12C renal
U251 CNS = tested on: U251 CNS
CCRF-CEM leukemia = tested on: CCRF-CEM leukemia
LXFL 529 NSCLC = tested on: LXFL 529 NSCLC
ACHN renal = tested on: ACHN renal
XF 498 CNS = tested on: XF 498 CNS
SF-295 CNS = tested on: SF-295 CNS
SK-MEL-2 melanoma = tested on: SK-MEL-2 melanoma
LOX IMVI melanoma = tested on: LOX IMVI melanoma
NCI-H226 lung = tested on: NCI-H226 lung
CAKI-1 renal = tested on: CAKI-1 renal
SNB-19 CNS = tested on: SNB-19 CNS
SF-539 CNS = tested on: SF-539 CNS
DLD-1 colon = tested on: DLD-1 colon
SK-MEL-28 melanoma = tested on: SK-MEL-28 melanoma
OVCAR-4 ovarian = tested on: OVCAR-4 ovarian
UO-31 renal = tested on: UO-31 renal
KM20L2 colon = tested on: KM20L2 colon
A549 NSCLC = tested on: A549 NSCLC
MALME-3M melanoma = tested on: MALME-3M melanoma
RXF 393 renal = tested on: RXF 393 renal
786-0 renal = tested on: 786-0 renal
HT29 colon = tested on: HT29 colon
DMS 114 small cell lung = tested on: DMS 114 small cell lung
M14 melanoma = tested on: M14 melanoma
TK-10 renal = tested on: TK-10 renal
NCI-H23 lung = tested on: NCI-H23 lung
HCT-116 colon = tested on: HCT-116 colon
UACC-62 melanoma = tested on: UACC-62 melanoma
HOP-62 NSCLC = tested on: HOP-62 NSCLC
SNB-75 CNS = tested on: SNB-75 CNS
NCI-H522 lung = tested on: NCI-H522 lung
SNB-78 CNS = tested on: SNB-78 CNS
SR leukemia = tested on: SR leukemia
HOP-92 NSCLC = tested on: HOP-92 NSCLC
SK-MEL-5 melanoma = tested on: SK-MEL-5 melanoma
DMS 273 small cell lung = tested on: DMS 273 small cell lung
K-562 leukemia = tested on: K-562 leukemia
OVCAR-3 ovarian = tested on: OVCAR-3 ovarian
HL-60(TB) leukemia = tested on: HL-60(TB) leukemia
HCT-15 colon = tested on: HCT-15 colon
RPMI-8226 leukemia = tested on: RPMI-8226 leukemia
HOP-18 NSCLC = tested on: HOP-18 NSCLC
UACC-257 melanoma = tested on: UACC-257 melanoma
DU-145 prostate = tested on: DU-145 prostate
NCI/ADR-RES ovarian = tested on: NCI/ADR-RES ovarian
BT-549 breast = tested on: BT-549 breast
MDA-N = tested on: MDA-N
MDA-MB-435 = tested on: MDA-MB-435
MDA-MB-231 breast = tested on: MDA-MB-231 breast
A498 renal = tested on: A498 renal
MCF7 breast = tested on: MCF7 breast
HS 578T breast = tested on: HS 578T breast
T-47D breast = tested on: T-47D breast
PC-3 prostate = tested on: PC-3 prostate

SMILES: CCCCN(CCCC)CCCn1cnc2ncccc2c1=O
- TGI (OVCAR-8 ovarian): > 100 µM
- TGI (IGROV1 ovarian): > 100 µM
- TGI (SK-OV-3 ovarian): > 100 µM
- TGI (KM12 colon): > 100 µM
- TGI (SW-620 colon): > 100 µM
- TGI (EKVX NSCLC): > 100 µM
- TGI (COLO 205 colon): > 100 µM
- TGI (HCC-2998 colon): > 100 µM
- TGI (SF-268 CNS): > 100 µM
- TGI (OVCAR-5 ovarian): > 100 µM
- TGI (NCI-H460 lung): > 100 µM
- TGI (M19-MEL melanoma): > 100 µM
- TGI (MOLT-4 leukemia): > 100 µM
- TGI (SN12C renal): > 100 µM
- TGI (U251 CNS): > 100 µM
- TGI (CCRF-CEM leukemia): > 100 µM
- TGI (LXFL 529 NSCLC): > 100 µM
- TGI (ACHN renal): > 100 µM
- TGI (XF 498 CNS): > 100 µM
- TGI (SF-295 CNS): > 100 µM
- TGI (SK-MEL-2 melanoma): > 100 µM
- TGI (LOX IMVI melanoma): > 100 µM
- TGI (NCI-H226 lung): > 100 µM
- TGI (CAKI-1 renal): > 100 µM
- TGI (SNB-19 CNS): > 100 µM
- TGI (SF-539 CNS): > 100 µM
- TGI (DLD-1 colon): > 100 µM
- TGI (SK-MEL-28 melanoma): > 100 µM
- TGI (OVCAR-4 ovarian): > 100 µM
- TGI (UO-31 renal): > 100 µM
- TGI (KM20L2 colon): > 100 µM
- TGI (A549 NSCLC): > 100 µM
- TGI (MALME-3M melanoma): > 100 µM
- TGI (RXF 393 renal): > 100 µM
- TGI (786-0 renal): > 100 µM
- TGI (HT29 colon): > 100 µM
- TGI (DMS 114 small cell lung): > 100 µM
- TGI (M14 melanoma): > 100 µM
- TGI (TK-10 renal): > 100 µM
- TGI (NCI-H23 lung): > 100 µM
- TGI (HCT-116 colon): > 100 µM
- TGI (UACC-62 melanoma): > 100 µM
- TGI (HOP-62 NSCLC): > 100 µM
- TGI (SNB-75 CNS): > 100 µM
- TGI (NCI-H522 lung): > 100 µM
- TGI (SNB-78 CNS): > 100 µM
- TGI (SR leukemia): > 100 µM
- TGI (HOP-92 NSCLC): > 100 µM
- TGI (SK-MEL-5 melanoma): > 100 µM
- TGI (DMS 273 small cell lung): > 100 µM
- TGI (K-562 leukemia): > 100 µM
- TGI (OVCAR-3 ovarian): > 100 µM

SMILES: CN(C(=O)c1ccco1)C(=S)N1CCN(c2ccccn2)CC1
- TGI (OVCAR-8 ovarian): > 100 µM
- TGI (IGROV1 ovarian): > 100 µM
- TGI (SK-OV-3 ovarian): > 100 µM
- TGI (KM12 colon): > 100 µM
- TGI (SW-620 colon): > 100 µM
- TGI (COLO 205 colon): > 100 µM
- TGI (SF-268 CNS): > 100 µM
- TGI (OVCAR-5 ovarian): > 100 µM
- TGI (NCI-H460 lung): > 100 µM
- TGI (M19-MEL melanoma): > 100 µM
- TGI (MOLT-4 leukemia): > 100 µM
- TGI (SN12C renal): > 100 µM
- TGI (U251 CNS): > 100 µM
- TGI (HL-60(TB) leukemia): > 100 µM
- TGI (CCRF-CEM leukemia): > 100 µM
- TGI (LXFL 529 NSCLC): > 100 µM
- TGI (ACHN renal): > 100 µM
- TGI (XF 498 CNS): > 100 µM
- TGI (SF-295 CNS): > 100 µM
- TGI (SK-MEL-2 melanoma): > 100 µM
- TGI (LOX IMVI melanoma): > 100 µM
- TGI (NCI-H226 lung): > 100 µM
- TGI (CAKI-1 renal): > 100 µM
- TGI (SNB-19 CNS): > 100 µM
- TGI (SF-539 CNS): > 100 µM
- TGI (DLD-1 colon): > 100 µM
- TGI (SK-MEL-28 melanoma): > 100 µM
- TGI (OVCAR-4 ovarian): > 100 µM
- TGI (UO-31 renal): > 100 µM
- TGI (KM20L2 colon): > 100 µM
- TGI (A549 NSCLC): > 100 µM
- TGI (MALME-3M melanoma): > 100 µM
- TGI (RXF 393 renal): > 100 µM
- TGI (786-0 renal): > 100 µM
- TGI (HT29 colon): > 100 µM
- TGI (HCT-15 colon): > 100 µM
- TGI (M14 melanoma): > 100 µM
- TGI (TK-10 renal): > 100 µM
- TGI (NCI-H23 lung): > 100 µM
- TGI (HCT-116 colon): > 100 µM
- TGI (UACC-62 melanoma): > 100 µM
- TGI (RPMI-8226 leukemia): > 100 µM
- TGI (HOP-18 NSCLC): > 100 µM
- TGI (HOP-62 NSCLC): > 100 µM
- TGI (SNB-75 CNS): > 100 µM
- TGI (NCI-H522 lung): > 100 µM
- TGI (UACC-257 melanoma): > 100 µM
- TGI (SNB-78 CNS): > 100 µM
- TGI (HOP-92 NSCLC): > 100 µM
- TGI (SK-MEL-5 melanoma): > 100 µM
- TGI (DMS 273 small cell lung): > 100 µM
- TGI (K-562 leukemia): > 100 µM
- TGI (OVCAR-3 ovarian): > 100 µM

SMILES: CCOC(=O)C(Cc1ccc(N(CCCl)CCCl)cc1)NC(=O)CCCN1C(=O)CN=C(c2ccccc2)c2cc(Cl)ccc21 (centres undefined)
- TGI (OVCAR-8 ovarian): > 100 µM
- TGI (IGROV1 ovarian): 16.9 µM
- TGI (SK-OV-3 ovarian): > 100 µM
- TGI (DU-145 prostate): > 64.7 µM
- TGI (NCI/ADR-RES ovarian): > 87.1 µM
- TGI (KM12 colon): > 100 µM
- TGI (SW-620 colon): > 62.3 µM
- TGI (EKVX NSCLC): > 100 µM
- TGI (COLO 205 colon): 37.8 µM
- TGI (HCC-2998 colon): > 49.7 µM
- TGI (SF-268 CNS): 71.5 µM
- TGI (BT-549 breast): > 100 µM
- TGI (OVCAR-5 ovarian): > 100 µM
- TGI (NCI-H460 lung): > 100 µM
- TGI (MDA-N): 19.1 µM
- TGI (MOLT-4 leukemia): > 100 µM
- TGI (MDA-MB-435): > 59.5 µM
- TGI (MDA-MB-231 breast): 78.6 µM
- TGI (A498 renal): > 100 µM
- TGI (SN12C renal): 14.5 µM
- TGI (MCF7 breast): > 100 µM
- TGI (U251 CNS): > 100 µM
- TGI (HL-60(TB) leukemia): 7.51 µM
- TGI (CCRF-CEM leukemia): > 100 µM
- TGI (ACHN renal): 22.5 µM
- TGI (SF-295 CNS): > 100 µM
- TGI (SK-MEL-2 melanoma): 29.9 µM
- TGI (LOX IMVI melanoma): 8.99 µM
- TGI (NCI-H226 lung): 97 µM
- TGI (CAKI-1 renal): > 55.7 µM
- TGI (SNB-19 CNS): > 100 µM
- TGI (SF-539 CNS): 16.3 µM
- TGI (SK-MEL-28 melanoma): 8.35 µM
- TGI (OVCAR-4 ovarian): 98.3 µM
- TGI (UO-31 renal): 30.8 µM
- TGI (A549 NSCLC): > 100 µM
- TGI (MALME-3M melanoma): 7.71 µM
- TGI (HS 578T breast): 52 µM
- TGI (RXF 393 renal): 8.77 µM
- TGI (786-0 renal): > 77.5 µM
- TGI (HT29 colon): > 100 µM
- TGI (HCT-15 colon): > 100 µM
- TGI (M14 melanoma): 22.3 µM
- TGI (T-47D breast): 11.2 µM
- TGI (TK-10 renal): > 100 µM
- TGI (NCI-H23 lung): > 39 µM
- TGI (HCT-116 colon): > 100 µM
- TGI (UACC-62 melanoma): 5.95 µM
- TGI (RPMI-8226 leukemia): 20.7 µM
- TGI (HOP-62 NSCLC): > 100 µM
- TGI (SNB-75 CNS): 51.3 µM
- TGI (PC-3 prostate): > 100 µM
- TGI (NCI-H522 lung): 13.2 µM
- TGI (UACC-257 melanoma): 8.31 µM
- TGI (SR leukemia): > 27.3 µM
- TGI (HOP-92 NSCLC): 8.85 µM
- TGI (SK-MEL-5 melanoma): 25.2 µM
- TGI (K-562 leukemia): > 100 µM
- TGI (OVCAR-3 ovarian): 5.32 µM
